What was measured:
[1] = system: tobacco leaves; experiment: Effect of peptide infiltration on tobacco leaves; assay type: in vivo; conditions: for Diameter of necrotic area in infiltrated tobacco leaves: 100 μL infiltrated, after 48 h
Experimental: BP100 and the 36 lipopeptides were evaluated for their effect upon infiltration on tobacco leaves as described previously. Peptide solutions of 50, 150 and 250 μM were infiltrated (100 μL) into the mesophylls of fully expanded tobacco leaves. Infiltrations were carried out in a single leaf, and for each peptide and dose, at least three leaves randomly distributed in different plants were inoculated. Control infiltrations with water (negative control) or melittin (positive control) at the same molar concentration were performed. The appearance of symptoms on the leaves was followed for 48 h after infiltration and measured as a lesion diameter.

[2] = system: Xanthomonas fragariae Xf349-9A; experiment: MIC, growth inhibition in microtiter plates (TSB); assay type: cell-based; conditions: Xf, 25°C, 48 h, OD 600 nm, lowest concentration with no growth, given as interval of tested concentrations, three replicates, experiment repeated twice
Method in brief: (§1)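 Bacteria were scraped from agar after 24 h at 25°C, or 48 h for X. fragariae, and suspended in sterile water at 10^8 CFU mL^-1. Each suspension was combined with peptide dilution in Trypticase Soy Broth and incubated 48 h at 25°C. Growth was followed by absorbance at 600 nm.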

[3] = system: Pseudomonas syringae pv. syringae EPS94; experiment: MIC, growth inhibition in microtiter plates (TSB); assay type: cell-based; conditions: Pss, 25°C, 48 h, OD 600 nm, lowest concentration with no growth, given as interval of tested concentrations, three replicates, experiment repeated twice
Method in brief: as §1

[4] = system: Xanthomonas arboricola pv. pruni CFBP5563; experiment: MIC, growth inhibition in microtiter plates (TSB); assay type: cell-based; conditions: Xap, 25°C, 48 h, OD 600 nm, lowest concentration with no growth, given as interval of tested concentrations, three replicates, experiment repeated twice
Method in brief: as §1

[5] = system: Xanthomonas axonopodis pv. vesicatoria 2133–2; experiment: MIC, growth inhibition in microtiter plates (TSB); assay type: cell-based; conditions: Xav, 25°C, 48 h, OD 600 nm, lowest concentration with no growth, given as interval of tested concentrations, three replicates, experiment repeated twice
Method in brief: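 OD600 readout, hourly over 48 h at 25°C, 20 s shaking; TSB medium; inoculum from 10^8 CFU mL^-1 water suspension; triplicates, experiment run twice; MIC = lowest concentration showing no growth at endpoint.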

[6] = system: Pseudomonas syringae pv. actinidiae Psa3700.1.1; experiment: MIC, growth inhibition in microtiter plates (TSB); assay type: cell-based; conditions: Psa, 25°C, 48 h, OD 600 nm, lowest concentration with no growth, given as interval of tested concentrations, three replicates, experiment repeated twice
Method in brief: as §1

[7] = system: Erwinia amylovora PMV6076; experiment: MIC, growth inhibition in microtiter plates (TSB); assay type: cell-based; conditions: Ea, 25°C, 48 h, OD 600 nm, lowest concentration with no growth, given as interval of tested concentrations, three replicates, experiment repeated twice
Method in brief: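 The MIC is the lowest peptide concentration showing no growth after 48 h at 25 °C, with growth followed hourly by OD600 in TSB (triplicate wells, experiment repeated twice). Inocula came from 10^8 CFU mL^-1 suspensions of cells grown 24 h, or 48 h for X. fragariae, at 25 °C.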

[8] = system: T1, proteinase K; experiment: Susceptibility to protease degradation; assay type: in vitro ADME; conditions: proteinase K (isolated protease) in TRIS buffer; 50 μg/mL peptide, 1 μg/mL proteinase K, 100 mM TRIS buffer pH 7.6, 25°C, 60 min; decrease of HPLC peak area (220 nm); read-out: Digestion with proteinase K (percentage of degraded peptide)
T1 construct: purchased Sigma-Aldrich Corporation, Spain
Experimental: Digestion of BP100 and of 16 selected lipopeptides was carried out by treating 50 μg/mL peptide with 1 μg/mL proteinase K (Sigma-Aldrich Corporation, Spain) in 100 mM TRIS buffer, pH 7.6, at 25°C. The peptide cleavage after 60 min was determined by HPLC using a Kromasil (4.6 × 40 mm; 3 μm particle size) C18 reverse-phase column. Linear gradients of 0.1% aqueous TFA and 0.1% TFA in CH3CN were run from 0.98:0.02 to 0:1 over 12 min with UV detection at 220 nm. Digestion was estimated as the percentage of degraded lipopeptide calculated from the decrease of the HPLC peak area of the native peptide.

[9] = system: Fusarium oxysporum f. sp. lycopersici FOL 3 race 2; experiment: MIC, antifungal growth inhibition in microtiter plates (PDB); assay type: cell-based; conditions: Fo, 22°C, seven days, OD 600 nm, lowest concentration with no growth, given as interval of tested concentrations, three replicates, experiment repeated twice
Method in brief: (§2)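 Conidial suspensions (10^3 conidia/mL P. expansum, 10^4 F. oxysporum) incubated with peptides in PDB with 0.003% chloramphenicol at 22 °C for seven days, OD600 read every 2 h. MIC is the lowest concentration with no growth at the end; triplicates, experiment repeated twice.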

[10] = system: Penicillium expansum EPS26; experiment: as above; assay type: cell-based; conditions: Pe, 22°C, seven days, OD 600 nm, lowest concentration with no growth, given as interval of tested concentrations, three replicates, experiment repeated twice
Method in brief: as §2

SMILES: CCCCCC(=O)NCCCC[C@H](NC(=O)[C@H](CCCCN)NC(=O)[C@H](CCCCN)NC(C)=O)C(=O)N[C@@H](Cc1ccccc1)C(=O)N[C@@H](CCCCN)C(=O)N[C@@H](CCCCN)C(=O)N[C@H](C(=O)N[C@@H](CC(C)C)C(=O)N[C@@H](CCCCN)C(=O)N[C@@H](Cc1ccc(O)cc1)C(=O)N[C@@H](CC(C)C)C(N)=O)[C@@H](C)CC [BP370, Ac-KKK(COC5H11)FKKILKYL-NH2]
- Size of the lesions in infiltrated tobacco leaves (diameter) ([1]; 250 μM, 100 μL infiltrated into mesophyll, measured after 48 h): 5.0 ± 1.6 mm
- MIC [2]: 6.2 to 12.5 µM
- MIC [3]: 3.1 to 6.2 µM
- MIC [4]: 3.1 to 6.2 µM
- MIC [5]: 3.1 to 6.2 µM
- MIC [6]: 3.1 to 6.2 µM
- MIC [7]: 3.1 to 6.2 µM
- metabolised at 1 h, 50 μg/mL [8]: 26%
- MIC [9]: 0.8 to 1.6 µM
- MIC [10]: 6.2 to 12.5 µM

SMILES: CC[C@H](C)[C@H](NC(=O)CN)C(=O)NCC(=O)N[C@@H](C)C(=O)N[C@H](C(=O)N[C@@H](CC(C)C)C(=O)N[C@@H](CCCCN)C(=O)N[C@H](C(=O)N[C@@H](CC(C)C)C(=O)N[C@H](C(=O)N[C@H](C(=O)NCC(=O)N[C@@H](CC(C)C)C(=O)N1CCC[C@H]1C(=O)N[C@@H](C)C(=O)N[C@@H](CC(C)C)C(=O)N[C@H](C(=O)N[C@@H](CO)C(=O)N[C@@H](Cc1c[nH]c2ccccc12)C(=O)N[C@H](C(=O)N[C@@H](CCCCN)C(=O)N[C@@H](CCCNC(=N)N)C(=O)N[C@@H](CCCCN)C(=O)N[C@@H](CCCNC(=N)N)C(=O)N[C@@H](CCC(N)=O)C(=O)N[C@@H](CCC(N)=O)C(N)=O)[C@@H](C)CC)[C@@H](C)CC)[C@@H](C)O)[C@@H](C)O)C(C)C)C(C)C [melittin, reference compound]
- Diameter of necrotic area in infiltrated tobacco leaves ([1]; 50 μM): 1.1 cm
- Diameter of necrotic area in infiltrated tobacco leaves ([1]; 250 μM): 2.3 cm

SMILES: CCCCCCCCCCCC(=O)NCCCC[C@H](NC(=O)[C@H](CCCCN)NC(C)=O)C(=O)N[C@@H](CC(C)C)C(=O)N[C@@H](Cc1ccccc1)C(=O)N[C@@H](CCCCN)C(=O)N[C@@H](CCCCN)C(=O)N[C@H](C(=O)N[C@@H](CC(C)C)C(=O)N[C@@H](CCCCN)C(=O)N[C@@H](Cc1ccc(O)cc1)C(=O)N[C@@H](CC(C)C)C(N)=O)[C@@H](C)CC [BP393, Ac-KK(COC11H23)LFKKILKYL-NH2]
- MIC [2]: 3.1 to 6.2 µM
- MIC [3]: 12.5 to 25 µM
- MIC [4]: 3.1 to 6.2 µM
- MIC [5]: 3.1 to 6.2 µM
- MIC [6]: 6.2 to 12.5 µM
- MIC [7]: 12.5 to 25 µM
- MIC [9]: 1.6 to 3.1 µM
- MIC [10]: >25 µM

Source: publication PMC6063448, “Antimicrobial activity of linear lipopeptides derived from BP100 towards plant pathogens” (PLoS ONE, 2018)
